Test results from patent publication US20240000872A1, “NOVEL BACTERIOPHAGE THAT LYSES ACINETOBACTER GENUS BACTERIA HAVING RESISTANCE TO ANTIBIOTICS” (priority 2020, published 2024).

Tested on: Acinetobacter baumannii strains
Experiment: Antibiotic susceptibility test (CLSI disk diffusion test method, read per CLSI 2016)
Type: cell-based
Method: (§1) Strain identification was performed using a kit such as AT 32 GN system (bioMérieux, Marcy l'Etoile, France). […] In Table 2 below, S, I, and R are the results obtained by evaluating susceptibility to the antibacterial agents, in which ‘S’ means susceptible, ‘I’ means intermediate, and ‘R’ means resistant.
as §1, with “as ATB” for “as AT”, “system (bioMédrieux,” for “system (bioMérieux,”, “Table 6” for “Table 2”
as §1, with “as ATB” for “as AT”, “Table 10” for “Table 2”, “susceptible, T” for “susceptible, ‘I’”

## C[C@@H](O)[C@H]1C(=O)N2C(C(=O)O)=C(S[C@@H]3CN[C@H](C(=O)N(C)C)C3)[C@H](C)[C@H]12 [Meropenem, meropenem]
Host strain YMC16/01/R353
  antibiotic susceptibility S/I/R: R
  susceptibility category (S/I/R): R
Host strain YMC16/01/R380
  antibiotic susceptibility S/I/R: R
  susceptibility category (S/I/R): R
Host strain YMC16/01/R397
  antibiotic susceptibility S/I/R: R
  susceptibility category (S/I/R): R
Host strain YMC16/01/R405
  antibiotic susceptibility S/I/R: R
  susceptibility category (S/I/R): R
Host strain YMC16/03/R4461
  antibiotic susceptibility S/I/R: R
  susceptibility category (S/I/R): R
Host strain YMC16/05/R2210
  antibiotic susceptibility S/I/R: R
  susceptibility category (S/I/R): R
Host strain YMC16/07/R2512
  antibiotic susceptibility S/I/R: R
  susceptibility category (S/I/R): R
Host strain YMC16/09/R2471
  antibiotic susceptibility S/I/R: R
  susceptibility category (S/I/R): R
Host strain YMC16/10/R2537
  antibiotic susceptibility S/I/R: R
  susceptibility category (S/I/R): R
Host strain YMC16/12/B11422
  antibiotic susceptibility S/I/R: R
  susceptibility category (S/I/R): R
Host strain YMC16/12/B11449
  antibiotic susceptibility S/I/R: R
  susceptibility category (S/I/R): R
Host strain YMC16/12/B13325
  antibiotic susceptibility S/I/R: R
  susceptibility category (S/I/R): R
Host strain YMC16/12/P503
  antibiotic susceptibility S/I/R: R
  susceptibility category (S/I/R): R
Host strain YMC16/12/R4637
  antibiotic susceptibility S/I/R: R
  susceptibility category (S/I/R): R
Host strain YMC17/01/B8053
  antibiotic susceptibility S/I/R: R
  susceptibility category (S/I/R): R
Host strain YMC17/01/B10087
  antibiotic susceptibility S/I/R: R
  susceptibility category (S/I/R): R
Host strain YMC17/01/B12075
  antibiotic susceptibility S/I/R: R
  susceptibility category (S/I/R): R
Host strain YMC17/01/B13454
  antibiotic susceptibility S/I/R: R
  susceptibility category (S/I/R): R
Host strain YMC17/01/P518
  antibiotic susceptibility S/I/R: R
  susceptibility category (S/I/R): R
Host strain YMC17/01/R2812
  antibiotic susceptibility S/I/R: R
  susceptibility category (S/I/R): R
Host strain YMC17/02/B14
  antibiotic susceptibility S/I/R: R
  susceptibility category (S/I/R): R
Host strain YMC17/02/B87
  antibiotic susceptibility S/I/R: R
  susceptibility category (S/I/R): R
Host strain YMC17/02/B721
  antibiotic susceptibility S/I/R: R
  susceptibility category (S/I/R): R
Host strain YMC17/02/B4039
  antibiotic susceptibility S/I/R: R
  susceptibility category (S/I/R): R
Host strain YMC17/02/B4520
  antibiotic susceptibility S/I/R: R
  susceptibility category (S/I/R): R
Host strain YMC17/02/B4864
  antibiotic susceptibility S/I/R: S
  susceptibility category (S/I/R): S
Host strain YMC17/02/B8414
  antibiotic susceptibility S/I/R: R
  susceptibility category (S/I/R): R
Host strain YMC17/02/P523
  antibiotic susceptibility S/I/R: R
  susceptibility category (S/I/R): R
Host strain YMC17/02/R541
  antibiotic susceptibility S/I/R: R
  susceptibility category (S/I/R): R
Host strain YMC17/02/R2392
  antibiotic susceptibility S/I/R: R
  susceptibility category (S/I/R): R
Host strain YMC17/03/B4730
  antibiotic susceptibility S/I/R: R
  susceptibility category (S/I/R): R
Host strain YMC17/03/B5000
  antibiotic susceptibility S/I/R: R
  susceptibility category (S/I/R): R
Host strain YMC17/03/P971
  antibiotic susceptibility S/I/R: R
  susceptibility category (S/I/R): R
Host strain YMC17/03/R348
  antibiotic susceptibility S/I/R: R
  susceptibility category (S/I/R): R
Host strain YMC17/03/R585
  antibiotic susceptibility S/I/R: R
  susceptibility category (S/I/R): R
Host strain YMC17/03/R1888
  antibiotic susceptibility S/I/R: R
  susceptibility category (S/I/R): R
Host strain YMC17/03/R3279
  antibiotic susceptibility S/I/R: R
  susceptibility category (S/I/R): R
Host strain YMC17/03/R4077
  antibiotic susceptibility S/I/R: R
  susceptibility category (S/I/R): R
Host strain YMC17/03/R4607
  antibiotic susceptibility S/I/R: R
  susceptibility category (S/I/R): R
Host strain YMC17/04/R488
  antibiotic susceptibility S/I/R: R
  susceptibility category (S/I/R): R
Host strain YMC17/04/R640
  antibiotic susceptibility S/I/R: R
  susceptibility category (S/I/R): R
Host strain YMC/17/05/R1095
  antibiotic susceptibility S/I/R: R
  susceptibility category (S/I/R): R
